According to ChEMBL document CHEMBL1201862, “PubChem BioAssay data set” (2004):
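Tested at 5 concentrations; 48 h exposure; 96-well plates; endpoints linearly interpolated, else capped at highest concentration. Here, GI50 denotes the concentration required for 50% inhibition of growth.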 Activity calls are given as the source filed them. Cut-off read from the data, not from the text of the source: active = GI50 up to about 1.1 µM and inactive = higher.

Tests used:
Assay in all cases: inhibition of tumour cell growth, NCI panel, 48 h
MDA-N = test system: MDA-N
BT-549 = test system: BT-549
Hs-578T = test system: Hs-578T
T47D = test system: T47D
MCF7 = test system: MCF7

Question: What does the source list for `O=C1c2ccccc2C(=O)c2c(OCC3CO3)ccc(OCC3CO3)c21` (stereo not drawn)?
Answer: GI50 (MDA-N): 3.8 µM (inactive); GI50 (BT-549): 6.28 µM (inactive); GI50 (Hs-578T): 16.2 µM (inactive); GI50 (T47D): 6 µM (inactive); GI50 (MCF7): 0.195 µM (active)

Question: For `COC(=O)c1nsc(OC)c1Cl`, which GI50 (MDA-N) is on record?
Answer: > 100 µM (inactive)

Question: What about the GI50 (BT-549) of the same compound?
Answer: > 100 µM (inactive)

Question: What about the GI50 (Hs-578T) of the same compound?
Answer: > 100 µM (inactive)

Question: And the GI50 (MCF7)?
Answer: > 100 µM (inactive)

Question: Which results are given for `CCC1OC2C(CC=C(C)C)=C3OC(C)(O)C(C)(CC)C(=O)C3=C3OC(=O)C=C1C32` (stereo not drawn)?
Answer: GI50 (BT-549): 15.1 µM (inactive); GI50 (T47D): 66.2 µM (inactive); GI50 (MCF7): 27.9 µM (inactive)

Question: With `C=C(C)C1CCC2=CC(CC3(C)OC3C3=CC(C(=O)OC)=C(C1)O3)OC2=O` (stereo not drawn) as the compound, how does the GI50 (MDA-N) read?
Answer: > 100 µM (inactive)

Question: And the GI50 (BT-549)?
Answer: > 100 µM (inactive)

Question: And the GI50 (T47D)?
Answer: 32.9 µM (inactive)

Question: And the GI50 (MCF7)?
Answer: > 100 µM (inactive)

Question: How did the GI50 (MDA-N) turn out when `CCOC(=O)c1c(C)n(Cc2ccccc2)c(=O)c2ccccc2c(=O)c2c(=O)ccc(=O)c1=2` was run?
Answer: 73.8 µM (inactive)

Question: What about the GI50 (Hs-578T) of the same compound?
Answer: > 100 µM (inactive)

Question: What about the GI50 (T47D) of the same compound?
Answer: 30.6 µM (inactive)

Question: `CO[C@@H]1C[C@H]2[C@@H]3CC[C@H]([C@H](C)COC(C)=O)[C@@]3(C)CC[C@@H]2[C@@]2(C)CC[C@H]3C[C@]312` was tested. Which GI50 (MDA-N) did it give?
Answer: > 100 µM (inactive)

Question: And the GI50 (Hs-578T)?
Answer: > 100 µM (inactive)

Question: What about the GI50 (T47D) of the same compound?
Answer: > 100 µM (inactive)

Question: And the GI50 (MCF7)?
Answer: 81.3 µM (inactive)

Question: Which results are given for `C=C1C(=O)OC2/C=C(\C)C(=O)CC3OC(C)(C)OC3(C)CC(OC(=O)/C(C)=C/C)C12` (stereo not drawn)?
Answer: GI50 (MDA-N): 13.2 µM (inactive); GI50 (BT-549): 10.4 µM (inactive); GI50 (Hs-578T): 28.9 µM (inactive); GI50 (T47D): 17.6 µM (inactive); GI50 (MCF7): 7.46 µM (inactive)

Question: With `Cc1nc(-[n+]2nc(-c3ccncc3)nn2-c2ccccc2)sc1C` as the compound, how does the GI50 (BT-549) read?
Answer: 17.1 µM (inactive)

Question: And the GI50 (Hs-578T)?
Answer: 44.4 µM (inactive)

Question: What about the GI50 (T47D) of the same compound?
Answer: 39.4 µM (inactive)

Question: And the GI50 (MCF7)?
Answer: 18.6 µM (inactive)

Question: Which results are given for `CCCc1c(OC)c(=O)c2c(OC)cc(OC)c3c4c(OC)cc(OC)c5c(=O)c(OC)c(CCC)c(c1c23)c54`?
Answer: GI50 (MDA-N): 15.2 µM (inactive); GI50 (BT-549): 15 µM (inactive); GI50 (T47D): 4.07 µM (inactive); GI50 (MCF7): 17.1 µM (inactive)

Question: How did the GI50 (MDA-N) turn out when `COc1ccc2c(c1)SC1=Nc3sc4cc(OC)ccc4[n+]3CN12` was run?
Answer: 26.1 µM (inactive)

Question: And the GI50 (BT-549)?
Answer: 66.8 µM (inactive)

Question: What about the GI50 (Hs-578T) of the same compound?
Answer: 44.8 µM (inactive)

Question: And the GI50 (T47D)?
Answer: 4.99 µM (inactive)

Question: And the GI50 (MCF7)?
Answer: 5.25 µM (inactive)

Question: What does the source list for `O=C1C[C@H]2[C@@H](O1)[C@@H](O)CN1C(=O)c3ccccc3[C@H]21`?
Answer: GI50 (MDA-N): > 100 µM (inactive); GI50 (BT-549): > 100 µM (inactive); GI50 (T47D): > 100 µM (inactive); GI50 (MCF7): > 100 µM (inactive)

Question: Which GI50 (MDA-N) does the source give for `O=C1CCCCC1CN1CCCCC1` (stereo not drawn) here?
Answer: > 100 µM (inactive)

Question: What about the GI50 (BT-549) of the same compound?
Answer: > 100 µM (inactive)

Question: What about the GI50 (Hs-578T) of the same compound?
Answer: > 100 µM (inactive)

Question: And the GI50 (MCF7)?
Answer: > 100 µM (inactive)

Question: `CCC1(CC)SCc2nc3ccccc3n21` was tested. Which GI50 (MDA-N) did it give?
Answer: 34.9 µM (inactive)

Question: And the GI50 (Hs-578T)?
Answer: 31.1 µM (inactive)

Question: And the GI50 (T47D)?
Answer: 49.7 µM (inactive)

Question: What about the GI50 (MCF7) of the same compound?
Answer: 30.2 µM (inactive)

Question: How did the GI50 (MDA-N) turn out when `O=S(=O)(c1ccccc1)n1c2cc3cccnc3nc2c2cccnc21` was run?
Answer: 38.2 µM (inactive)

Question: And the GI50 (BT-549)?
Answer: > 100 µM (inactive)

Question: And the GI50 (Hs-578T)?
Answer: > 100 µM (inactive)

Question: And the GI50 (MCF7)?
Answer: 46 µM (inactive)

Question: What does the source list for `CCc1cccc(C(C)C)c1NC1=C([n+]2ccc(C)cc2)C(=O)c2ccccc2C1=O.[O-][Cl+3]([O-])([O-])[O-]`?
Answer: GI50 (MDA-N): 1.65 µM (inactive); GI50 (Hs-578T): 12.8 µM (inactive); GI50 (T47D): 0.13 µM (active); GI50 (MCF7): 0.27 µM (active)

Question: `Oc1ccc(-c2nn3c(CCCCCCCCc4nnc5sc(-c6ccc(O)cc6)nn45)nnc3s2)cc1` was tested. Which GI50 (MDA-N) did it give?
Answer: > 100 µM (inactive)

Question: And the GI50 (BT-549)?
Answer: > 100 µM (inactive)

Question: And the GI50 (Hs-578T)?
Answer: > 100 µM (inactive)

Question: And the GI50 (T47D)?
Answer: 55.1 µM (inactive)

Question: And the GI50 (MCF7)?
Answer: > 100 µM (inactive)

Question: Which results are given for `CCN(CC)/C(SCc1ccccc1)=C(\C(Cl)=C(Cl)Cl)[N+](=O)[O-]`?
Answer: GI50 (MDA-N): 16.4 µM (inactive); GI50 (T47D): 18.9 µM (inactive); GI50 (MCF7): 16.8 µM (inactive)

Question: For `CCOC(=O)c1c(O)cc(=O)[nH]c1N1CCOCC1`, which GI50 (MDA-N) is on record?
Answer: > 100 µM (inactive)

Question: What about the GI50 (BT-549) of the same compound?
Answer: > 100 µM (inactive)

Question: And the GI50 (T47D)?
Answer: > 100 µM (inactive)

Question: And the GI50 (MCF7)?
Answer: > 100 µM (inactive)

Question: With `Cc1ncc([N+](=O)[O-])n1CCNC(=O)Cn1ccnc1[N+](=O)[O-]` as the compound, how does the GI50 (MDA-N) read?
Answer: > 100 µM (inactive)

Question: What about the GI50 (BT-549) of the same compound?
Answer: > 100 µM (inactive)

Question: What about the GI50 (Hs-578T) of the same compound?
Answer: > 100 µM (inactive)

Question: And the GI50 (T47D)?
Answer: > 100 µM (inactive)

Question: And the GI50 (MCF7)?
Answer: > 100 µM (inactive)
